Test results published in patent US9453000B2, “Polycyclic compound” (EISAI R&D MANAGEMENT CO., LTD., priority 2007, dated 2016).

Test system: Aβ42 production in rat primary neuronal culture
Experiment: Quantification of Aβ peptide in culture of neurons from rat fetus brain (Aβ ELISA)
Type: cell-based
Details: Primary cortical neuron, 72 h, rat primary cortical neurons (embryonic day 18 Wistar), three days after addition of the compound, Aβx-42 ELISA of medium, read-out: Aβ42 production reducing effect IC50
Experimental: Quantification of Aβ Peptide in Culture of Neurons from Rat Fetus Brain
(1) Rat Primary Neuronal Culture
Primary neuronal cultures were prepared from the cerebral cortex of embryonic day 18 Wistar rats (Charles River Japan, Yokohama, Japan). Specifically, the embryos were aseptically removed from pregnant rats under ether anesthesia. The brain was isolated from the embryo and immersed in an ice-cold L-15 medium (Invitrogen Corp. Cat #11415-064, Carlsbad, Calif., USA, or SIGMA L1518, for example). The cerebral cortex was collected from the isolated brain under a stereoscopic microscope. The cerebral cortex fragments collected were enzymatically treated in an enzyme solution containing 0.25% trypsin (Invitrogen Corp. Cat #15050-065, Carlsbad, Calif., USA) and 0.01% DNase (Sigma D5025, St. Louis, Mo., USA) at 37° C. for 30 minutes to disperse the cells. Here, the enzymatic reaction was stopped by adding inactivated horse serum to the solution. The enzymatically treated solution was centrifuged at 1,500 rpm for five minutes to remove the supernatant. 5 to 10 ml of a medium was added to the resulting cell mass. Neurobasal medium (Invitrogen Corp. Cat #21103-049, Carlsbad, Calif., USA) supplemented with 2% B27 supplement (Invitrogen Corp. Cat #17504-044, Carlsbad, Calif., USA), 25 μM 2-mercaptoethanol (2-ME, WAKO Cat #139-06861, Osaka, Japan), 0.5 mM L-glutamine (Invitrogen Corp. Cat #25030-081, Carlsbad, Calif., USA), and Antibiotics-Antimycotics (Invitrogen Corp. Cat #15240-062, Carlsbad, Calif., USA) was used as the medium (Neurobasal/B27/2-ME). However, the above Neurobasal medium not supplemented with 2-ME (Neurobasal/B27) was used for the assay. The cells were redispersed by mild pipetting of the cell mass to which the medium was added. The cell dispersion was filtered through a 40-μm nylon mesh (Cell Strainer, Cat #35-2340, Becton Dickinson Labware, Franklin Lakes, N.J., USA) to remove the remaining cell mass, and thus a neuronal cell suspension was obtained. The neuronal cell suspension was diluted with the medium and then plated in a volume of 100 μl/well at an initial cell density of 5×10^5 cells/cm^2 in a 96-well polystyrene culture plate pre-coated with poly-L or D-lysine (Falcon Cat #35-3075, Becton Dickinson Labware, Franklin Lakes, N.J., USA coated with poly-L-lysine using the method shown below, or BIOCOAT™ cell environments Poly-D-lysine cell ware 96-well plate, Cat #35-6461, Becton Dickinson Labware, Franklin Lakes, N.J., USA). Poly-L-lysine coating was carried out as follows. 100 μg/ml of a poly-L-lysine (SIGMA P2636, St. Louis, Mo., USA) solution was aseptically prepared with a 0.15 M borate buffer (pH 8.5). 100 μl/well of the solution was added to the 96-well polystyrene culture plate and incubated at room temperature for one or more hours or at 4° C. overnight or longer. The coated 96-well polystyrene culture plate was washed with sterile water four or more times, and then dried or rinsed with, for example, sterile PBS or medium, and used for cell plating. The plated cells were cultured in the culture plate at 37° C. in 5% CO2-95% air for one day. Then, the total amount of the medium was replaced with a fresh Neurobasal™/B27/2-ME medium, and then the cells were cultured for further three days.
The drug was added to the culture plate on Day 4 of culture as follows. The total amount of the medium was removed from the wells, and 180 μl/well of Neurobasal medium not containing 2-ME and containing 2% B-27 (Neurobasal/B27) was added thereto. A solution of the test compound in dimethyl sulfoxide (hereinafter abbreviated as DMSO) was diluted with Neurobasal/B27 at 10-fold of the final concentration. 20 μl/well of the dilution was added to and sufficiently mixed with the medium. The final DMSO concentration was 1% or less. Only DMSO was added to the control group.
The cells were cultured for three days after addition of the compound, and the total amount of the medium was collected. […]

| SMILES | IC50 [nM] |
| --- | --- |
| COc1cc(/C=C/c2nc3n(n2)CCCC3(O)c2ccc(C(C)C)cc2)ccc1-n1cnc(C)c1 (single isomer, unassigned) [Example 55, (−)-8-(4-isopropylphenyl)-2-{(E)-2-[3-methoxy-4-(4-methyl-1H-imidazol-1-yl)phenyl]vinyl}-5,6,7,8-tetrahydro[1,2,4]triazolo[1,5-a]pyridin-8-ol] | 28 |
| COc1cc(/C=C/c2nc3n(n2)CCC[C@]3(O)c2ccccc2F)ccc1-n1cnc(C)c1 (single isomer, unassigned) [Example 59, (−)-8-(2-fluorophenyl)-2-{(E)-2-[3-methoxy-4-(4-methyl-1H-imidazol-1-yl)phenyl]vinyl}-5,6,7,8-tetrahydro-[1,2,4]triazolo[1,5-a]pyridin-8-ol] | 45 |
| COc1cc(/C=C/c2nc3n(n2)CCCC3C2CCCN2Cc2ccccc2)ccc1-n1cnc(C)c1 (single isomer, unassigned) [Example 133, 8-(1-benzylpyrrolidin-2-yl)-2-{(E)-2-[3-methoxy-4-(4-methyl-1H-imidazol-1-yl)phenyl]vinyl}-5,6,7,8-tetrahydro[1,2,4]triazolo[1,5-a]pyridine] | 65 |
| COc1nc(/C=C/c2nc3n(n2)CCCC3c2cc(F)c(F)c(F)c2)ccc1-n1cnc(C)c1 (single isomer, unassigned) [Example 169, (−)-2-{(E)-2-[6-methoxy-5-(4-methyl-1H-imidazol-1-yl)pyridin-2-yl]vinyl}-8-(3,4,5-trifluorophenyl)-5,6,7,8-tetrahydro-[1,2,4]triazolo[1,5-a]pyridine] | 22 |
| COc1nc(/C=C/c2nc3n(n2)CCC[C@H]3c2ccc(F)c(F)c2)ccc1-n1cnc(C)c1 (single isomer, unassigned) [Example 171, (−)-8-(3,4-difluorophenyl)-2-{(E)-2-[6-methoxy-5-(4-methyl-1H-imidazol-1-yl)pyridin-2-yl]vinyl}-5,6,7,8-tetrahydro-[1,2,4]triazolo[1,5-a]pyridine] | 17 |
| COc1nc(/C=C/c2nc3n(n2)CCC[C@H]3c2ccc(F)cc2)ccc1-n1cnc(C)c1 (single isomer, unassigned) [Example 173, (−)-8-(4-fluorophenyl)-2-{(E)-2-[6-methoxy-5-(4-methyl-1H-imidazol-1-yl)pyridin-2-yl]vinyl}-5,6,7,8-tetrahydro-[1,2,4]triazolo[1,5-a]pyridine] | 37 |
| COc1nc(/C=C/c2nc3n(n2)CCCC3c2cccc(F)c2)ccc1-n1cnc(C)c1 (single isomer, unassigned) [Example 189, (−)-8-(3-fluorophenyl)-2-{(E)-2-[6-methoxy-5-(4-methyl-1H-imidazol-1-yl)pyridin-2-yl]vinyl}-5,6,7,8-tetrahydro[1,2,4]triazolo[1,5-a]pyridine] | 43 |
| COc1nc(/C=C/c2nc3n(n2)CCCC3c2cccc3ccccc23)ccc1-n1cnc(C)c1 (single isomer, unassigned) [Example 199, (+)-2-{(E)-2-[6-methoxy-5-(4-methyl-1H-imidazol-1-yl)pyridin-2-yl]vinyl}-8-(naphthalen-1-yl)-5,6,7,8-tetrahydro-[1,2,4]triazolo[1,5-a]pyridine] | 23 |
| COc1cc(/C=C/c2nc3n(n2)CCC[C@H]3c2ccc(F)cc2)cnc1-n1cnc(C)c1 (single isomer, unassigned) [Example 212, (−)-8-(4-fluorophenyl)-2-{(E)-2-[5-methoxy-6-(4-methyl-1H-imidazol-1-yl)pyridin-3-yl]vinyl}-5,6,7,8-tetrahydro-[1,2,4]triazolo[1,5-a]pyridine] | 100 |
| COc1cc(/C=C/c2nc3n(n2)CCC[C@H]3c2ccc(F)c(F)c2)cnc1-n1cnc(C)c1 (single isomer, unassigned) [Example 218, (−)-8-(3,4-difluorophenyl)-2-{(E)-2-[5-methoxy-6-(4-methyl-1H-imidazol-1-yl)pyridin-3-yl]vinyl}-5,6,7,8-tetrahydro-[1,2,4]triazolo[1,5-a]pyridine] | 69 |
| COc1cc(/C=C/c2nc3n(n2)CCCC3c2ccccc2C(F)(F)F)ccc1-n1cnc(C)c1 (single isomer, unassigned) [Example 311, (−)-2-{(E)-2-[3-methoxy-4-(4-methyl-1H-imidazol-1-yl)phenyl]vinyl}-8-(2-trifluoromethylphenyl)-5,6,7,8-tetrahydro-[1,2,4]triazolo[1,5-a]pyridine] | 11 |
| COc1cc(/C=C/c2nc3n(n2)CC[C@H]3c2ccccc2C(F)(F)F)ccc1-n1cnc(C)c1 (single isomer, unassigned) [Example 317, (−)-2-{(E)-2-[3-methoxy-4-(4-methyl-1H-imidazol-1-yl)phenyl]vinyl}-7-(2-trifluoromethylphenyl)-6,7-dihydro-5H-pyrrolo[1,2-b][1,2,4]triazole] | 25 |
| COc1nc(/C=C/c2nc3n(n2)CCC[C@@H]3c2ccccc2C)ccc1-n1cnc(C)c1 (single isomer, unassigned) [Example 319, (−)-2-{(E)-2-[6-methoxy-5-(4-methyl-1H-imidazol-1-yl)pyridin-2-yl]vinyl}-8-(o-tolyl)-5,6,7,8-tetrahydro[1,2,4]triazolo[1,5-a]pyridine] | 15 |
| COc1nc(/C=C/c2nc3n(n2)CCC[C@@H]3c2cccc(C(F)(F)F)c2)ccc1-n1cnc(C)c1 (single isomer, unassigned) [Example 321, (−)-2-{(E)-2-[6-methoxy-5-(4-methyl-1H-imidazol-1-yl)pyridin-2-yl]vinyl}-8-(3-trifluoromethylphenyl)-5,6,7,8-tetrahydro[1,2,4]triazolo[1,5-a]pyridine] | 23 |
| COc1nc(/C=C/c2nc3n(n2)CCCC3c2cc(F)ccc2C(F)(F)F)ccc1-n1cnc(C)c1 (single isomer, unassigned) [Example 329, (−)-8-(5-fluoro-2-trifluoromethylphenyl)-2-{(E)-2-[6-methoxy-5-(4-methyl-1H-imidazol-1-yl)pyridin-2-yl]vinyl}-5,6,7,8-tetrahydro-[1,2,4]triazolo[1,5-a]pyridine] | 17 |
| COc1nc(/C=C/c2nc3n(n2)CCCC3c2c(F)cccc2C(F)(F)F)ccc1-n1cnc(C)c1 (single isomer, unassigned) [Example 331, (−)-8-(6-fluoro-2-trifluoromethylphenyl)-2-{(E)-2-[6-methoxy-5-(4-methyl-1H-imidazol-1-yl)pyridin-2-yl]vinyl}-5,6,7,8-tetrahydro-[1,2,4]triazolo[1,5-a]pyridine] | 22 |
| COc1nc(/C=C/c2nc3n(n2)CCC[C@@H]3c2cccc(F)c2C)ccc1-n1cnc(C)c1 (single isomer, unassigned) [Example 333, (−)-8-(3-fluoro-2-methylphenyl)-2-{(E)-2-[6-methoxy-5-(4-methyl-1H-imidazol-1-yl)pyridin-2-yl]vinyl}-5,6,7,8-tetrahydro-[1,2,4]triazolo[1,5-a]pyridine] | 10 |
| Cc1cn(-c2ccc(/C=C/c3nc4n(n3)CCC[C@@H]4c3ccccc3C(F)(F)F)nc2OCC(F)F)cn1 (single isomer, unassigned) [Example 354, (−)-2-{(E)-2-[5-(4-methyl-1H-imidazol-1-yl)-6-(2,2-difluoroethoxy)pyridin-2-yl]vinyl}-8-(2-trifluoromethylphenyl)-5,6,7,8-tetrahydro-[1,2,4]triazolo[1,5-a]pyridine] | 37 |
